Non-standard residues stand in square brackets, D forms with d. No end group written: not given here. *: point of attachment. 2Nal = N[C@@H](Cc1ccc2ccccc2c1)C(=O)O; Heptanoyl = CCCCCCC(=O)*; Nle = CCCC[C@H](N)C(=O)O
Key:
[1] = biological target: T1, MC4-R (Homo sapiens, UniProt P32245); assay: Competitive binding assay: inhibition of 125I-NDP-α-MSH binding to HEK-293 membranes with cloned human receptor subtype 4; conditions: Table 6, mean of triplicate
T1 construct: expressed in transfected cells; host or cells: HEK-293
T1 sequence (P32245 whole entry): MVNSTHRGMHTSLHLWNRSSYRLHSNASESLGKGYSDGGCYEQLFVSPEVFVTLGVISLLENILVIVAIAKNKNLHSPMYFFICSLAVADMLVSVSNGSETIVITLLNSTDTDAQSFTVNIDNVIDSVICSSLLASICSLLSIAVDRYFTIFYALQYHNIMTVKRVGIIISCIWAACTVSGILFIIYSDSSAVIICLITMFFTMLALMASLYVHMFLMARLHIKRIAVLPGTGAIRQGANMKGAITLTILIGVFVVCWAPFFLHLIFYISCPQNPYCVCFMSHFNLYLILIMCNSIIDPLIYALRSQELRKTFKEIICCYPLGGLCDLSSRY
Description: (§1) Rhenium-complexed metallopeptides of the formulas given in Table 1 were prepared, with the metallopeptides complexed with rhenium using the rhenium transfer agent ReOCl3(PPh3)2 in the presence of 1,8-Diazabicyclo[5,4,0] undec-7-ene as a base, as disclosed in International Application PCT/US00/16396, filed Jun. 14, 2000, Melanocortin Metallopeptide Constructs, Combinatorial Libraries and Applications, incorporated by reference herein. Affinities of compounds were measured using membranes from HEK-293 cells containing cloned human melanocortin receptor subtypes 3, 4 and 5. MC1-R membranes were isolated from B16—F10 mouse melanoma cells. The assay tube also contained a chosen concentration of the test peptide of this invention, complexed to a rhenium metal ion as indicated, for determining its efficacy in inhibiting the binding of ^125I-NDP-α-MSH to its receptor. Non-specific binding was measured by complete inhibition of binding of ^125I-NDP-α-MSH in the assay with the presence of 1 μM α-MSH. 100% specific binding was defined as the difference in radioactivity (cpm) bound to cell membranes in the absence and presence of 1 μM α-MSH. The cpm obtained in presence of test compounds were normalized with respect to 100% specific binding to determine the percent inhibition of ^125I-NDP-α-MSH binding.
(§2) Peptide sequences set forth in Table 6 were prepared using conventional synthetic means. The resulting sequences were rhenium-complexed to form metallopeptides, with the metallopeptides complexed with rhenium using the rhenium transfer agent ReOCl3(PPh3)2 in the presence of 1,8-Diazabicyclo[5,4,0] undec-7-ene as a base. Percent inhibition was determined as in Example 1 using the Re-complexed metallopeptides, using the same methods as described therein. All measures are means of triplicate determinations.

[2] = biological target: T2, MC1-R (Mus musculus, UniProt Q01727); assay: Competitive binding assay: inhibition of 125I-NDP-α-MSH binding to membranes from B16-F10 mouse melanoma cells; conditions: Table 6, mean of triplicate
T2 construct: MC1-R membranes were isolated from B16—F10 mouse melanoma cells; endogenous in cells; host or cells: B16-F10 mouse melanoma cells
T2 sequence (Q01727 whole entry): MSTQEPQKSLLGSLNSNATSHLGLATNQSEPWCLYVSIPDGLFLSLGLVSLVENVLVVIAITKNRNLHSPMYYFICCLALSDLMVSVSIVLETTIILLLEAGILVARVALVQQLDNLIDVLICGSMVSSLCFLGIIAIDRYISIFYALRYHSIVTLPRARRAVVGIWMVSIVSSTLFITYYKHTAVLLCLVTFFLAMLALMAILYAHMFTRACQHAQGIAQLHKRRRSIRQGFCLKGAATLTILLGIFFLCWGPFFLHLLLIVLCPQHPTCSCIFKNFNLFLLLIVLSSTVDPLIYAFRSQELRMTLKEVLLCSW
Description: as §1, §2

| % Inhibition of Binding hMC4-R ([1]; 1 μM) [%] | % Inhibition of Binding MC1-R ([2]; 1 μM) [%] | % Inhibition of Binding hMC4-R ([1]; 0.1 μM) [%] | % Inhibition of Binding MC1-R ([2]; 0.1 μM) [%] | Substance |
| --- | --- | --- | --- | --- |
| 72 | 30 |  |  | Heptanoyl-Ser(Bzl)-D-Phe(4′-Cl)-Arg-Cys(Bzl)-Cys-NH2 |
| 81 |  |  |  | D-Phe-Arg-Trp-Cys-Lys-NH2 ([dF]RWCK-NH2; also: metallopeptide) |
|  |  | 46 | 14 | Heptanoyl-Ser(Bzl)-D-Phe(4′-Cl)-Arg-Phe(2′-F)-Cys-NH2 |
|  |  | 92 | 12 | Heptanoyl-Ser(Bzl)-D-Phe(4′-Cl)-Arg-Tyr(3′-l)-Cys-NH2 |
| 84 | 61 |  |  | 4′-Aminomethyl-Phenylacetyl Arg-Arg-Ala-D-Phe(4′-Cl)-Cys-Trp-NH2 |
| 71 | 88 |  |  | Heptanoyl-[dP][dF]RWCK-NH2 |
| 18 | 15 |  |  | Heptanoyl-Ala-Nal 2′-Cys-Trp-NH2 (Heptanoyl-A[2Nal]CW-NH2; also: metallopeptide, metal not given here) |
| 100 | 72 |  |  | Heptanoyl-Ser(Bzl)-D-Nal 2′-Arg-Trp-Cys-Lys-NH2 |
| 64 | 53 |  |  | Phe-Arg-Trp-Cys-Lys-NH2 (FRWCK-NH2; not fully specified; printed as Phe-Arg-Trp-Cys-Lys-NH2) |
| 32 | 37 |  |  | [dF]R[dW]CW-NH2 |
|  |  | 96 | 95 | Ac-Nle-Arg-Arg-D-Nal 2′-Cys-Trp-Lys-NH2 |
| 46 | 23 |  |  | (R)-4-amino-5-phenyl pentanoyl-Lys-Ala-D-Phe(4′-Me)-Cys-Trp-NH2 |
|  |  | 94 | 16 | Heptanoyl-Ser(Bzl)-D-Phe(4′-Cl)-Arg-Nal 2′-Cys-NH2 |
| 45 | 53 |  |  | [dF]RW[dC]W-NH2 |
| 95 | 21 |  |  | 3′-Cl Phenyl acetyl-Arg-Ala-D-Phe(4′-CF3)-Cys-Trp-NH2 |
| 92 | 77 |  |  | 1′-Naphthyl acetyl-Arg-Arg-D-Phe(3′-Cl)-Cys-Trp-NH2 |
| 83 | 57 |  |  | Heptanoyl-Ser(Bzl)-D-Phe(2′-F)-Lys-Nal 2′-Cys-NH2 |
| 19 | 20 |  |  | Heptanoyl-Ser(Bzl)-D-Phe(2′-Cl)-Lys-Phe-Cys-NH2 |
| 85 | 57 |  |  | HyP(Bzl)-D-Phe(2′-Cl)-Nal 2′-Cys-NH2 |
| 26 | 0 |  |  | Ph(CH2)2-CO-D-Phe(2′-Cl)-Lys-Nal 2′-Cys-NH2 |
| 92 | 4 |  |  | Heptanoyl-Ser(Bzl)-D-Phe(4′-Cl)-Arg-Thr(Bzl)-Cys-NH2 |

| % Inhibition of Binding hMC4-R ([1]; 1 μM) [%] | % Inhibition of Binding MC1-R ([2]; 1 μM) [%] | % Inhibition of Binding hMC4-R ([1]; 0.1 μM) [%] | % Inhibition of Binding MC1-R ([2]; 0.1 μM) [%] | Substance |
| --- | --- | --- | --- | --- |
| 20 | 10 |  |  | Heptanoyl-D-Hphe-D-Phe(2′-Cl)-Lys-Nal 2′-Cys-NH2 |
| 99 | 84 |  |  | Ac-His-HyP(Bzl)-D-Phe(2′-Cl)-Arg-Nal 2′-Cys-NH2 |
| 73 | 34 |  |  | 3′-Br-Phenylacetyl-Lys-Ala-D-Phe(4′-CH3)Cys-Lys-NH2 |
| 96 | 79 |  |  | 3′-Br Phenyl acetyl-Arg-Arg-D-Phe(3′-Cl)-Cys-Trp-NH2 |
| 33 | 17 |  |  | Ph(CH2)3-CO-D-Phe(2′-Cl)-Lys-Nal 2′-Cys-NH2 |
| 69 | 51 |  |  | D-Phe(2′-Cl)-Lys-Nal 2′-Cys-NH2 |
| 3 | 15 |  |  | Ac-WA[dF][dC]RW-NH2 |
| 0 | 19 |  |  | Heptanoyl-Ser(Bzl)-D-Phe(4′-Cl)-Arg-Tyr(2′,6′-diCl-Bzl)-Cys-NH2 |
|  |  | 67 | 27 | Heptanoyl-Ser(Bzl)-D-Phe(4′-Cl)-Arg-Phe(3′-Cl)-Cys-NH2 |
| 96 | 93 |  |  | 2′-Naphthyl acetyl-Arg-Arg-D-Phe(4′-Cl)-Cys-Trp-NH2 |
| 70 | 90 |  |  | D-Phe-Arg-Trp-Cys-Trp-NH2 ([dF]RWCW-NH2; also: metallopeptide) |
| 0 | 24 |  |  | Ac-WA[dF][dC]R-NH2 |
| 96 | 100 |  |  | Ac-Nle-Arg-Arg-D-Nal 2′-Cys-Lys-NH2 |
| 75 | 82 |  |  | Heptanoyl-D-Phe-Arg-Trp-Cys-Lys-NH2 (Heptanoyl-[dF]RWCK-NH2; also: metallopeptide) |
| 90 | 78 |  |  | 2′-Naphthyl acetyl-Arg-Arg-D-Phe(3′-Cl)-Cys-Trp-NH2 |
| 0 | 8 |  |  | Ac-KA[dF][dC]R-NH2 |
|  |  | 97 | 78 | Heptanoyl-Ser(Bzl)-D-Phe(4′-Cl)-Arg-Nal 2′-Cys-Lys-NH2 |
| 32 | 92 |  |  | Heptanoyl-R[dF]GWCK-NH2 |
| 98 | 97 |  |  | 1′-Naphthyl acetyl-Arg-Arg-D-Phe(4′-Cl)-Cys-Trp-NH2 |
| 84 | 23 |  |  | 3′-Br Phenyl acetyl-Arg-Ala-D-Phe(3′-Cl)-Cys-Trp-NH2 |
| 69 | 65 |  |  | 3′-Br-Phenylacetyl-Lys-Lys-D-Phe(4′-CH3)Cys-Lys-NH2 |

| % Inhibition of Binding hMC4-R ([1]; 1 μM) [%] | % Inhibition of Binding MC1-R ([2]; 1 μM) [%] | % Inhibition of Binding hMC4-R ([1]; 0.1 μM) [%] | % Inhibition of Binding MC1-R ([2]; 0.1 μM) [%] | Substance |
| --- | --- | --- | --- | --- |
|  |  | 90 | 21 | Heptanoyl-Ser(Bzl)-D-Phe(4′-Br)-Arg-Trp-Cys-NH2 |
|  |  | 57 | 81 | 4′-Aminomethyl-Phenylacetyl-Arg-Arg-D-Phe(4′-Cl)-Cys-Trp-NH2 |
| 82 | 65 |  |  | Ser(Bzl)-D-Phe(4′-Cl)-Arg-D-Trp-Cys-NH2 |
| 96 | 25 |  |  | 3′-Br Phenyl acetyl-Arg-Ala-D-Phe(4′-Me)-Cys-Trp-NH2 |
| 97 | 48 |  |  | NH2-(CH2)6-CO-Ser(Bzl)-D-Phe(4′-Cl)-Arg-D-Trp-Cys-NH2 |
| 3 | 29 |  |  | Ac-[Nle]A[dF][dC]RW-NH2 |
| 50 | 33 |  |  | Ser(Bzl)-D-Phe(2′-Cl)-Lys-Nal 2′-Cys-NH2 |
| 85 | 16 |  |  | Heptanoyl-Ser(Bzl)-D-Phe(4′-Cl)-Arg-Tyr(Bzl)-Cys-NH2 |
| 97 | 69 |  |  | D-(N-Bzl) Phe(2′-Cl)-Lys-Nal 2′-Cys-NH2 |
|  |  | 32 | 11 | Heptanoyl-Ser(Bzl)-D-Phe(4′-Cl)-Arg-Phe-Cys-NH2 |
|  |  | 85 | 10 | Heptanoyl-Ser(Bzl)-D-Phe(4′-Cl)-Arg-Tyr(3′,5′-Di-l)-Cys-NH2 |
| 24 | 32 |  |  | Phe-Arg-Trp-Cys-Trp-NH2 (FRWCW-NH2; not fully specified; printed as Phe-Arg-Trp-Cys-Trp-NH2) |
| 36 | 23 |  |  | Ac-Nle-Arg-Ala-D-Nal 2′-Cys-Lys-NH2 |
|  |  | 47 | 3 | Heptanoyl-Ser(Bzl)-D-Phe(4′-Cl)-Arg-Nal 1′-Cys-NH2 |
| 43 | 38 |  |  | Heptanoyl-Ser(Bzl)-D-Phe(4′-Cl)-Arg-Hphe-Cys-NH2 |
| 55 | 66 |  |  | [dF]R[dW]CK-NH2 |
| 34 | 37 |  |  | FR[dW]CW-NH2 |
|  |  | 80 | 64 | (N-PhEt)-D-Phe(2′-Cl)-Lys-Nal 2′-Cys-NH2 |
| 98 |  |  |  | 1-Naphthylacetyl-Arg-Arg-D-Phe(4′-Cl)-Cys-Nal 2′-NH2 |

Reference: patent US7307063B2, “Melanocortin metallopeptides for treatment of sexual dysfunction” (Palatin Technologies, Inc., priority 2001, dated 2007)
